Source: patent US6790971B1, “19-Nor-steroids” (Aventis Pharma S.A., priority 1989, dated 2004)

Key:
[1] = biological target: T1, Progestogen Receptor of Rabbit's Uterus (Oryctolagus cuniculus, UniProt P06186); test: Relative affinity of the bond, progestogen receptor (tritiated product R displacement); type: binding; conditions: for Relative affinity of the bond (RAB), Progestogen, 2 H: incubation 2 H at 0° C.; for Relative affinity of the bond (RAB), Progestogen, 2 H / Relative affinity of the bond (RAB), Progestogen, 24 H: RAB=100(CH)/(CX); for Relative affinity of the bond (RAB), Progestogen, 24 H: incubation 24 H at 0° C.
T1 construct: The uteri were removed, weighed and homogenized at 0° C; from tissue; host or cells: uterine cytosol (150,000 g supernatant) of estradiol-primed immature rabbits
T1 sequence (P06186 1-930): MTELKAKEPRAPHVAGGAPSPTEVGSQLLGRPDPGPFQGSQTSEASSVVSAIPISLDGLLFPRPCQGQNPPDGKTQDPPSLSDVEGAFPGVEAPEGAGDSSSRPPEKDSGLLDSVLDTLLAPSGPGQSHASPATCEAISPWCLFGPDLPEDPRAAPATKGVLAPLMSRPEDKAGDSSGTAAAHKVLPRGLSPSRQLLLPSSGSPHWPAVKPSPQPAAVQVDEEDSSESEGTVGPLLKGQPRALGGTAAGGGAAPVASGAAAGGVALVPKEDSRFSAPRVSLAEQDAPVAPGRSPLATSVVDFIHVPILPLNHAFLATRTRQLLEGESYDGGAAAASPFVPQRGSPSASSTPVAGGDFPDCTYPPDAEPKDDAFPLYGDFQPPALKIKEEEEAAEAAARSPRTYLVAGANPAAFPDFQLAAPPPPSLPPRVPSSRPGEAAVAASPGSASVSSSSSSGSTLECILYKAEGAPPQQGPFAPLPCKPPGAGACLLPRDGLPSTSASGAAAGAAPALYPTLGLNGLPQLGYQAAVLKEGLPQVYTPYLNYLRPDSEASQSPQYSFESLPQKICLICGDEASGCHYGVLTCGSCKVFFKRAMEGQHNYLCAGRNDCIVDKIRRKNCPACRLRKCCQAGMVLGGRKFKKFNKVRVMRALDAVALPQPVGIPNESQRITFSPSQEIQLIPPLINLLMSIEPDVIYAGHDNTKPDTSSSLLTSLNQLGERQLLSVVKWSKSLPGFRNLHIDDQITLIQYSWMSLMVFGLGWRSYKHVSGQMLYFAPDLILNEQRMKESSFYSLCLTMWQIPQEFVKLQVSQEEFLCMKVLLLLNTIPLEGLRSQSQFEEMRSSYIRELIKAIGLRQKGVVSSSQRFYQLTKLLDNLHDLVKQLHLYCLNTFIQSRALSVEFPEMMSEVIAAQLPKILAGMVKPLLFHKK
Protocol: Progestogen Receptor of Rabbit's Uterus:
Impuberal rabbits weighing about 1 kg received a cutaneous application of 25 μg of estradiol and 5 days after this treatment, the animals were killed. The uteri were removed, weighed and homogenized at 0° C. using a Potter teflon-glass in a TS buffered solution (Tris 10 mM, Saccharose 0.25 M, HCl pH 7.4) (1 g of tissue for 50 ml of TS). The homogenate was then ultracentrifuged (150,000 g×90 minutes) at 0° C. and aliquots of the supernatant were incubated at 0° C. for a time t, with a constant concentration (T) of the tritiated product R (17,21-dimethyl-19-nor-Δ^4,9-pregnadiene-3,20-dione in the presence of increasing concentrations (0-2500.10^−9 M) either of cold R or of cold progesterone, or of the cold product to be tested. The concentration (B) of bound tritiated R was subsequently measured in each incubate by the technique of adsorption on dextran charcoal.
(§1) Calculation of the Relative Affinty of the Bond
(§2) The calculation of the Relative Affinity of the Bond (RAB) was identical for all the receptors. The following 2 curves were traced; the percentage of the bound tritiated hormone [formula]
(§3) was a function of the logarithm of the concentration of the cold reference hormone and [formula]
(§4) as a function of the logarithm of the concentration of the cold product tested.
(§5) One determined the straight line of the equation [formula]
(§6) The intersections of the straight line I50 and of the curves make it possible to evaluate the concentrations of the cold reference hormone (CH) and of the tested cold product (CX) which inhibit to an extend of 50% the binding of the tritiated hormone upon the receptor. The relative affinity of the bond (RAB) of the tested product is determined by the equation

[2] = biological target: T2, Androgen Receptor of Rat's Prostate (Rattus norvegicus, UniProt P15207); test: Relative affinity of the bond, androgen receptor (tritiated testosterone displacement); type: binding; conditions: for Relative affinity of the bond (RAB), Androgen, 0.5 H: incubation 0.5 H at 0° C.; for Relative affinity of the bond (RAB), Androgen, 0.5 H / Relative affinity of the bond (RAB), Androgen, 25 H: RAB=100(CH)/(CX); for Relative affinity of the bond (RAB), Androgen, 25 H: incubation 25 H at 0° C.
T2 construct: Their prostates were removed, weighed and homogenized at 0° C; from tissue; host or cells: prostate cytosol (105,000 g supernatant) of castrated male Sprague-Dawley rats
T2 sequence (P15207 1-902): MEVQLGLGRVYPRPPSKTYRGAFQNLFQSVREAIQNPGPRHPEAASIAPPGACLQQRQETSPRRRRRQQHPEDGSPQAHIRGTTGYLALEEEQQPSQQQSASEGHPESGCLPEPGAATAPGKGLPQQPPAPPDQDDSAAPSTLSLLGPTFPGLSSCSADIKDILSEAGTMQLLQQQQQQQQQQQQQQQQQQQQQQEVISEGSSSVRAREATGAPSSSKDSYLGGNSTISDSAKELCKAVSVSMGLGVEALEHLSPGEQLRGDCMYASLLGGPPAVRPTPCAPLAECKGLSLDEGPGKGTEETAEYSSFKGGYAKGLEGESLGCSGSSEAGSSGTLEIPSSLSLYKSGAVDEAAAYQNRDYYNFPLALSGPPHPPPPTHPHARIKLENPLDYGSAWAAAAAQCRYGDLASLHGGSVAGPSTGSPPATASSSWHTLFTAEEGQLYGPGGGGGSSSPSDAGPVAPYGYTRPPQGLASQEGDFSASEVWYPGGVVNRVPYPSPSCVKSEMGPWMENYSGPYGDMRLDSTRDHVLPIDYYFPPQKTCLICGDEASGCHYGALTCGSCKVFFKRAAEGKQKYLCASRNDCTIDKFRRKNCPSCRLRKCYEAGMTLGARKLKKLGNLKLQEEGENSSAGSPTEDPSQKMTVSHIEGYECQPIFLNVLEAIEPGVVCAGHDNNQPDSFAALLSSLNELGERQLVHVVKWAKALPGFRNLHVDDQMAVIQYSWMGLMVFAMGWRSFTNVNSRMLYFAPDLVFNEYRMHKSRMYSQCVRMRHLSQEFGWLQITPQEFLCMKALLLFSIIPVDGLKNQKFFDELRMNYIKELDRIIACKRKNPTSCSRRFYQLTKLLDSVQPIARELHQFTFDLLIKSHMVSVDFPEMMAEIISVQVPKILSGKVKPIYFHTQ
Protocol: Androgen Receptor of Rat's Prostate:
Male Sprague Dawley EPOS rats weighing 160 to 200 g were castrated and 24 hours after the castration, the animals were killed. Their prostates were removed, weighed and homogenized at 0° C. using a Potter teflon-glass in a TS buffered solution (Tris 10 mM, saccharose 0.25 M, HCl pH 7.4) (1 g of tissue for 5 ml of TS). The homogenate was ultracentrifuged (105,000 g for 60 minutes) at 0° C. and aliquots of the supernatant were incubated at 0° C. for an incubation time E with a constant concentration (T) of tritiated testosterone in the presence of increasing concentrations (0-1000.10^−9 M) either of cold testosterone or of the product to be tested. The concentration of bound tritiated testosterone (B) was then measured in each incubate by the adsorption on dextran carbon technique.
as §1, §2, §3, §4, §5, §6

Molecule | Relative affinity of the bond (RAB), Progestogen, 2 H [1] | Relative affinity of the bond (RAB), Progestogen, 24 H [1] | Relative affinity of the bond (RAB), Androgen, 0.5 H [2] | Relative affinity of the bond (RAB), Androgen, 25 H [2] | affinity for the pregesterone receptor [1] | affinity for the androgen receptor [2]
CCCCN(C)C(=O)CCCCCCCCCC[C@H]1C[C@]2(C)[C@@H](O)CC[C@H]2[C@@H]2CCc3cc(O)ccc3[C@@H]12 [Example 13, N-Butyl-3,17β-Dihydroxy-N-Methyl-11β-Δ^1,3,5(10)-Estratriene-Undecanamide] | 0.0 | 1.8 | 0 | 0.12 | – | –
CC(C)N(C)C(=O)CCCCCCCCCC[C@H]1C[C@]2(C)[C@@H](O)CC[C@H]2[C@@H]2CCc3cc(O)ccc3[C@@H]12 [Example 16, 3,17β-dihydroxy-N-methyl-N-isopropyl-11β-Δ^1,3,5(10)-estratriene undecanamide] | 0.5 | 2 | 0 | 0.4 | – | –
CN(Cc1ccccc1)C(=O)CCCCCCCCCC[C@H]1C[C@]2(C)[C@@H](O)CC[C@H]2[C@@H]2CCC3=CC(=O)CCC3=C12 [Example 17, N-benzyl-17β-hydroxy-N-methyl-3-oxo-11β-Δ^4,9-estradiene undecanamide] | 0 | 16 | 0.12 | 1.2 | moderate affinity | –
CN(C)CCN(C)C(=O)CCCCCCCCCC[C@H]1C[C@]2(C)[C@@H](O)CC[C@H]2[C@@H]2CCC3=CC(=O)CCC3=C12 [Example 19, N-[2-(dimethylamino)-ethyl]-17β-hydroxy-N-methyl-3-oxo-11β-Δ^4,9-estradiene undecanamide] | 6 | 7 | 11 | 11 | – | moderate affinity
CC#C[C@]1(O)CC[C@H]2[C@@H]3CCC4=CC(=O)CCC4=C3[C@@H](CCCCCCCCCCC(=O)NCCCC)C[C@@]21C [Example 22, N-butyl-17β-hydroxy-3-oxo-17α-(1-propynyl)-11β-Δ^4,9-estradiene undecanamide] | 12 | 21 | 0.0 | 0 | moderate affinity | –
CCCCN(C)C(=O)CCCCCCCCCCC[C@H]1C[C@]2(C)[C@@H](O)CC[C@H]2[C@@H]2CCc3cc(O)ccc3[C@@H]12 [Example 24, N-butyl-3,17β-dihydroxy-N-methyl-11β-Δ^1,3,5(10)-estratriene dodecanamide] | 0 | 0 | 0 | 0.4 | – | –
N-butyl-3,17β-dihydroxy-N-methyl-19-nor-11β-Δ^1,3,5(10)-pregnatrien-20-yn undecanamide [Example 21] | 0.3 | 1 | 0 | 0 | – | –
